The values below come from the supplement of paper PMC10307832.

What all share (assay): relative viability (nuclei count vs DMSO), 5 days (fraction); higher = more cells survive
Compound in assay [1]: C(C(=O)C(=O)O)Br [Bromopyruvate] + COc1cc2c(Oc3ccc(NC(=O)C4(C(=O)Nc5ccc(F)cc5)CC4)cc3F)ccnc2cc1OCCCN1CCOCC1 [Foretinib] (partner 0.25 µM)
An outline of the steps:
(§1)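 Lung cancer cell lines were pin-tool dosed in 1536-well plates on the day after seeding, with either a lone drug or a fixed anchor-drug dose plus five library-drug doses (not always all listed) in √10 steps. Nuclei were counted on 4× images after 5 days. Relative viability is the ratio of treated-well to vehicle-well nuclei counts, with each value a median of duplicate plates.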

Compound in assay [2]: C(C(=O)C(=O)O)Br [Bromopyruvate] + CS(=O)(=O)CCNCc1ccc(-c2ccc3ncnc(Nc4ccc(OCc5cccc(F)c5)c(Cl)c4)c3c2)o1 [Lapatinib] (partner 2 µM)
An outline of the steps:
as §1

Compound in the assay “Bicalutamide + OSI-027”: CC(O)(CS(=O)(=O)c1ccc(F)cc1)C(=O)Nc1ccc(C#N)c(C(F)(F)F)c1 [Bicalutamide] + COc1cccc2cc(-c3nc([C@H]4CC[C@H](C(=O)O)CC4)n4ncnc(N)c34)[nH]c12 [OSI-027] (partner 0.5 µM)
The procedure, abridged:
as §1

Compound in the assay “Bicalutamide + AZD7762”: CC(O)(CS(=O)(=O)c1ccc(F)cc1)C(=O)Nc1ccc(C#N)c(C(F)(F)F)c1 [Bicalutamide] + NC(=O)Nc1cc(-c2cccc(F)c2)sc1C(=O)N[C@H]1CCCNC1 [AZD7762] (partner 0.2 µM)
An outline of the steps:
as §1

With RERF-LC-KJ, the relative viability in assay [1] (first compound 1 µM) amounted to 0.843; in assay [1] (first compound 3.162 µM) it was 0.918; in assay [1] (first compound 10 µM), 0.962; in assay [1] (first compound 31.62 µM), 0.818; in assay [1] (first compound 100 µM) it was 0.869; in assay [2] (first compound 1 µM) it was 0.874. Further, the relative viability in assay [2] (first compound 3.162 µM) was 0.892; in assay [2] (first compound 10 µM), 0.984; in assay [2] (first compound 31.62 µM) it was 0.868; in assay [2] (first compound 100 µM) it was 0.829; in the assay with Bicalutamide + OSI-027 (first compound 0.08 µM), 0.679; in the assay with Bicalutamide + OSI-027 (first compound 0.253 µM) it was 0.56. The relative viability with Bicalutamide + OSI-027 (first compound 0.8 µM) worked out at 0.563; with Bicalutamide + OSI-027 (first compound 2.53 µM), 0.543; with Bicalutamide + AZD7762 (first compound 0.08 µM), 0.982; in the assay with Bicalutamide + AZD7762 (first compound 0.253 µM) it was 0.847; in the assay with Bicalutamide + AZD7762 (first compound 0.8 µM), 1.47; with Bicalutamide + AZD7762 (first compound 2.53 µM) it was 0.867.
